Active and inactive are the calls of the source. The rule behind the calls is not given here.
Legend:
Cortex [1] = test: Neuroprotective activity in Sprague-Dawley rat brain cortex slices assessed as drug concentration causing maximum reduction of oxygen/glucose deprivation-induced glutamate release; format: functional; settings: read-out: MEC
Cortex [2] = test: Neuroprotective activity in Sprague-Dawley rat brain cortex slices assessed as reduction of oxygen/glucose deprivation-induced glutamate release at minimal effective concentration; format: functional; design: scale not given: the % may be the effect or the level left
Cortex [3] = test: Neuroprotective activity in Sprague-Dawley rat brain cortex slices assessed as interval of drug concentration causing reduction of oxygen/glucose deprivation-induced glutamate release; format: functional
Cortex [4] = test: Neuroprotective activity in Sprague-Dawley rat brain cortex slices assessed as drug concentration causing maximum reduction of oxygen/glucose deprivation-induced LDH release; format: functional; settings: read-out: MEC
Cortex [5] = test: Neuroprotective activity in Sprague-Dawley rat brain cortex slices assessed as interval of drug concentration causing reduction of oxygen/glucose deprivation-induced LDH release; format: functional
[6] = Antioxidant activity assessed as ABTS+ radical scavenging activity by spectrophotometry relative to 1 mM Trolox; format: functional
Cortex [7] = test: Neuroprotective activity in Sprague-Dawley rat brain cortex slices assessed as reduction of oxygen/glucose deprivation-induced LDH release at minimal effective concentration; format: functional; design: scale not given: the % may be the effect or the level left
[8] = target: Nitric oxide synthase 1 (Rattus norvegicus) (UniProt P29476); test: Inhibition of nNOS in Sprague-Dawley rat brain assessed as nitric oxide-mediated conversion of oxyhemoglobin to methemoglobin
Chain of Nitric oxide synthase 1 (Rattus norvegicus) (P29476 whole entry): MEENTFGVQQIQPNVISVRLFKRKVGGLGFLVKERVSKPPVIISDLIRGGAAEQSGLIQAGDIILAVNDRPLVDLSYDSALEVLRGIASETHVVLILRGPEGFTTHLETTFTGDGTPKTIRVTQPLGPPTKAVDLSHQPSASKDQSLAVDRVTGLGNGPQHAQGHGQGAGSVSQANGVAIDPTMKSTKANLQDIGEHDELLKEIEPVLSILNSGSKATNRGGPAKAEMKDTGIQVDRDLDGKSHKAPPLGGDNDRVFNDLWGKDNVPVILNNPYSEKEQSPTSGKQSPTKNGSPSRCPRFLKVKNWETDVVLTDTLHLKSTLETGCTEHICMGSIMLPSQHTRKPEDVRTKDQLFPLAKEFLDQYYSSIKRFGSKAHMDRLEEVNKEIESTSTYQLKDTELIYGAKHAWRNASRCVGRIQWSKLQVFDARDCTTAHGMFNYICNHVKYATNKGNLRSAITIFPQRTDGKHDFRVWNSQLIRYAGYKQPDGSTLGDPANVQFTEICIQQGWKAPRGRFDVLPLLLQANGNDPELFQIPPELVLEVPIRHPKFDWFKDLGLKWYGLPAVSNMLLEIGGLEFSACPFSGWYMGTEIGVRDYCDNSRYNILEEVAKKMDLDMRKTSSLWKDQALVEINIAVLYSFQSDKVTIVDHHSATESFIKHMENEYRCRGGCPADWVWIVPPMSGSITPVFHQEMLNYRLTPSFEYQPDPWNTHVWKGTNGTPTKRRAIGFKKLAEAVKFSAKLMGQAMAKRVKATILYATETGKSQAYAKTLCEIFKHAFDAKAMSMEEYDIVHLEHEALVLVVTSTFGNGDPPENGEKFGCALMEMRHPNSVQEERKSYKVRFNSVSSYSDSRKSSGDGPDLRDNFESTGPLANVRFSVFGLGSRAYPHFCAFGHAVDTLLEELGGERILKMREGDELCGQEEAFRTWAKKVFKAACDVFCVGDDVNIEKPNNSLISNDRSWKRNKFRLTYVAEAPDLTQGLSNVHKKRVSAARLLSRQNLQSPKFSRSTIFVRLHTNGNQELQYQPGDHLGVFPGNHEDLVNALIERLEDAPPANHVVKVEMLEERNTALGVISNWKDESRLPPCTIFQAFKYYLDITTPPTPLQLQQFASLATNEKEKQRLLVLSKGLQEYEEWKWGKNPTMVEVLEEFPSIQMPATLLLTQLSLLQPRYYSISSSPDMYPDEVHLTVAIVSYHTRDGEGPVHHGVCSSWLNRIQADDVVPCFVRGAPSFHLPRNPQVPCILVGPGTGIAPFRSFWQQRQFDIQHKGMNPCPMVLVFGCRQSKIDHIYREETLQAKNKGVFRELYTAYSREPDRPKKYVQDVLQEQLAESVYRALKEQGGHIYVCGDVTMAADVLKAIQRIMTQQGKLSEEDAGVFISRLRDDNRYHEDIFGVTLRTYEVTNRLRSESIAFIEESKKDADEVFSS

Rattus norvegicus [9] = species: Rattus norvegicus; settings: Wistar, Piriform cortex, at 50 µM
Description: Inhibition of voltage-dependent Na(+) channel in Wistar rat brain piriform cortex layer 2 assessed as inhibition of transient Na+ current amplitude at 50 uM under holding potential of -80 mV by whole cell patch clamp assay

Rattus norvegicus [10] = species: Rattus norvegicus; settings: Wistar, Piriform cortex, at 60 µM
Description: Inhibition of voltage-dependent Ca(+) channel in Wistar rat brain piriform cortex acutely dissociated neurons assessed as effect on high voltage activated Ba+ current deactivation at 60 uM by whole cell patch clamp assay

cells = format: tissue-based; settings: Rattus norvegicus, Wistar, Piriform cortex
Description: Inhibition of voltage-dependent Ca(+) channel in Wistar rat brain piriform cortex acutely dissociated neurons assessed as inhibition of high voltage activated Ba+ current amplitude at under holding potential of -60 mV by whole cell patch clamp assay

Rattus norvegicus [11] = species: Rattus norvegicus; settings: Wistar, Piriform cortex, at 60 µM; remark: listed apart in the source
Description: Inhibition of voltage-dependent Ca(+) channel in Wistar rat brain piriform cortex acutely dissociated neurons assessed as effect on high voltage activated Ba+ current activation speed at 60 uM by whole cell patch clamp assay

Rattus norvegicus [12] = species: Rattus norvegicus; settings: Wistar, Piriform cortex, at 60 µM; remark: listed apart in the source
Description: Inhibition of voltage-dependent Ca(+) channel in Wistar rat brain piriform cortex acutely dissociated neurons assessed as effect on half activation potential of high voltage activated Ba+ current at 60 uM by whole cell patch clamp assay

CC(C)NC(=S)Nc1nc2ccc(OC(F)(F)F)cc2s1
minimal effective concentration (Cortex [1]): 0.1 µM
Activity (Cortex [2]): 80.3%
Activity (Cortex [3]): 0.01 µM
minimal effective concentration (Cortex [4]): 0.01 µM
Activity (Cortex [5]): 0.01 µM
Ratio [6]: 0.64
Activity (Cortex [7]): 50%

C/C(=N\c1nc2ccc(OC(F)(F)F)cc2s1)N(C)C
minimal effective concentration (Cortex [1]): 0.1 µM
Activity (Cortex [2]): 100%
Activity (Cortex [3]): 0.1 µM
inhibition [8]: inactive
minimal effective concentration (Cortex [4]): 0.1 µM
Activity (Cortex [5]): 0.1 µM
Activity (Cortex [7]): 56.9%

O=c1c2ccccc2[se]n1-c1ccccc1
Ratio [6]: 0.32

Nc1nc2ccc(OC(F)(F)F)cc2s1 [RILUZOLE]
inhibition (Rattus norvegicus [9]): > 50%
minimal effective concentration (Cortex [1]): 1 µM
Activity (Cortex [2]): 100%
inhibition (Rattus norvegicus [10]): Active
Activity (Cortex [3]): 1 µM
minimal effective concentration (Cortex [4]): 10 µM
IC50 (cells): 34.2 µM
Activity (Cortex [5]): 0.1 µM
inhibition (Rattus norvegicus [11]): inactive
inhibition [6]: inactive
Activity (Cortex [7]): 100%
inhibition (Rattus norvegicus [12]): inactive

CCNC(=S)Nc1nc2ccc(OC(F)(F)F)cc2s1
minimal effective concentration (Cortex [1]): 1 µM
Activity (Cortex [2]): 80.1%
Activity (Cortex [3]): 1 µM
minimal effective concentration (Cortex [4]): 0.1 µM
Activity (Cortex [5]): 0.1 µM
Ratio [6]: 0.88
Activity (Cortex [7]): 73.1%

CCCCNC(=S)Nc1nc2ccc(OC(F)(F)F)cc2s1
inhibition (Rattus norvegicus [9]): 0%
minimal effective concentration (Cortex [1]): 1 µM
Activity (Cortex [2]): 100%
inhibition (Rattus norvegicus [10]): Active
Activity (Cortex [3]): 0.01 µM
minimal effective concentration (Cortex [4]): 0.01 µM
IC50 (cells): 24.1 µM
Activity (Cortex [5]): 0.01 µM
inhibition (Rattus norvegicus [11]): inactive
Ratio [6]: 0.98
Activity (Cortex [7]): 32%
inhibition (Rattus norvegicus [12]): inactive

CCCNC(=S)Nc1nc2ccc(OC(F)(F)F)cc2s1
inhibition (Rattus norvegicus [9]): 15%
minimal effective concentration (Cortex [1]): 0.01 µM
Activity (Cortex [2]): 94.2%
Activity (Cortex [3]): 0.01 µM
minimal effective concentration (Cortex [4]): 0.01 µM
Activity (Cortex [5]): 0.01 µM
Ratio [6]: 0.5
Activity (Cortex [7]): 60.9%
